Non-standard residues stand in square brackets, D forms with d. Residues, ends and D or L forms follow the SMILES beside them. Gly(octyl) = CCCCCCCC[C@H](N)C(=O)O
Key:
cynomolgus monkeys = assay: GLP-compliant 28-day inhalation toxicity study in monkeys; format: in vivo, cynomolgus monkey
Experimental: In a GLP-compliant 28-day inhalation toxicity study in cynomolgus monkeys, conducted by Charles River Laboratories Preclinical Services, Tranent, Edinburgh, UK, the formulation described in Example 2 and dilutions thereof as well as the vehicle were administered using the Pari eFlow® XL 30 nebulizer device (Pari Pharma, Starnberg, Germany) with an oro-nasal inhalation mask for 60 min per day for 28 days, followed by a 2-week recovery period. […] In total five males and five females were used for each dose of the toxicity study including recovery. Parameters assessed included clinical signs, body weights, electrocardiology, ophthalmic examination, clinical pathology, toxicokinetic parameters in the plasma, gross necropsy findings, organ weights and histopathologic examinations.

healthy subjects = assay: First-in-man study in healthy subjects, safety and tolerability of orally inhaled single doses; format: in vivo, human
Excerpt: In this randomised, double-blind, placebo-controlled, parallel-group (per dose level) dose-escalation study of inhaled single doses in 48 healthy subjects in six dose groups of eight subjects each, conducted by Inamed GmbH, Gauting, Germany, the controlled oral inhalation of the formulation described in Example 1 and dilutions thereof as well as the placebo (0.5% [w/w] aqueous sodium chloride solution adjusted to pH 5.5 with 1 M HCl pharmaceutical grade) occurred via the Pari eFlow® XL 30 nebulizer device (Pari Pharma GmbH, Starnberg, Germany). The dose levels and corresponding concentrations of cyclo(-OctG-Glu-Thr-Ala-Ser-Ile-Pro-Pro-Gln-Lys-Tyr-^DPro-Pro-) (active compound) are summarized in Table 10.
(§1) The volume of placebo nebulizer solution corresponded to that of the active compound at a particular dose level. The duration of inhalation depended on the total volume of nebulizer solution and ranged between several minutes and roughly one hour. Adverse events were tabulated and summarized according to the current version of Medical Dictionary for Regulatory Activities.

neutrophil elastase = assay: LPS/fMLP model of neutrophil activation in the rat, inhalation; neutrophil elastase activity in BAL supernatant; format: in vivo; conditions: for NE activity in BAL fluid: mean ± s.e.m., vehicle 0.25 ± 0.02, p < 0.0001
Experimental: The purpose of this study (conducted by Envigo CRS Limited, Alconbury, Huntingdon, United Kingdom) was to evaluate the effects of acetate salt of cyclo(-OctG-Glu-Thr-Ala-Ser-Ile-Pro-Pro-Gln-Lys-Tyr-^DPro-Pro-) administered by inhalation in a LPS/fMLP model of neutrophil activation in the rat.
Animals were challenged with aerosolized LPS (lipopolysaccharide, 1 mg/mL) for 30 min. Approximately 3 h following end of LPS challenge, animals were administered either vehicle or formulations as described above of acetate salt of cyclo(-OctG-Glu-Thr-Ala-Ser-Ile-Pro-Pro-Gln-Lys-Tyr-^DPro-Pro-) by inhalation (Groups 1-4) over a 30 min period using an eFlow® 30 XL electronic nebulizer (Pari Pharma GmbH, Starnberg, Germany; snout only exposure). All animals were dosed with fMLP (N-formyl-Met-Leu-Phe, 5 mg/kg) approximately 4 h post completion of the LPS challenge via the intratracheal route under transient gaseous anaesthesia at a dose volume of 1 mL/kg. Approximately 2 h after fMLP administration, animals were terminated and a bronchoalveolar lavage (BAL) was performed to evaluate inflammatory cell infiltrate and neutrophil elastase activity.
Following confirmation of death, the trachea of an animal was isolated, the tracheal cannula inserted and secured in place, and the airway was lavaged with 3 mL of phosphate buffered saline (PBS). The lavage was repeated twice and in total, three lots of 3 mL of PBS were used. The first lavage aliquot containing cells was placed into a 15 mL centrifuge tube on wet ice (Tube A). The BAL fluid pooled from the second two lavages was placed into a second tube (Tube B). Tube A and B were placed on wet ice until centrifuged. Centrifugation was performed at 800×g for 10 min at ca. 4° C. and the supernantant was harvested. Until neutrophil elastase analysis supernantant was stored at ca. […].
The two aliquots of BAL supernatant were analyzed for neutrophil elastase activity as follows: 120 μl of BAL supernatant from aliquot 1 was transferred to a 96 well plate (Corning #3650). In parallel, a dilution range from 1.6 to 0.025 mU/well of a commercial human neutrophil elastase (hNE, Serva #20927.01) was prepared. 120 μl of each hNE dilution were transferred in duplicate to the 96-well plate. To start the enzymatic reaction, 80 μl of a fluorescent peptide substrate (MeOSuc-Ala-Ala-Pro-Val-AMC) at a final concentration of 500 μM was added to each well and the plate was immediately placed in the victor2v fluorescent reader pre-warmed at 37° C. Fluorescence (λexc. 485 nm, λem. 535 nm) was recorded for 2 h at 37° C. Enzyme initial velocity (RFU/min) of all samples was calculated and converted in mU/mL hNE equivalent, using the linear regression equation obtained from the plot (RFU/min vs mU/mL of hNE dilution) of the human neutrophil elastase standard range. The assay was repeated using BAL supernatant from aliquot 2. The neutrophil elastase data reported is a mean of the neutrophil elastase activity from both aliquots.

[1] = test system: patients with cystic fibrosis; assay: Phase-1b single ascending dose study in patients with cystic fibrosis, safety and tolerability; format: in vivo, human
Excerpt: In this randomised, double-blind, placebo-controlled, parallel-group (per dose level) dose-escalation study, the safety and tolerability of single ascending doses (SAD) of acetate salt of cyclo(-OctG-Glu-Thr-Ala-Ser-Ile-Pro-Pro-Gln-Lys-Tyr-^DPro-Pro-) administered by inhalation in patients with cystic fibrosis (CF) was investigated. Additionally, the pharmacokinetics of the drug following a single ascending dose in plasma and sputum as well as its pharmacodynamic effect on neutrophil elastase activity in sputum were evaluated.
In this study, conducted by Inamed GmbH, Gauting, Germany, 24 subjects with cystic fibrosis, who fulfilled all the inclusion criteria and in whom no exclusion criterion was present, were included and received randomised treatment. They were grouped into 3 dose groups of 8 subjects each. 6 subjects received the formulation described in Example 1 and dilutions thereof and 2 subjects received placebo (0.5% [w/w] aqueous sodium chloride solution adjusted to pH 5.5 with 1 M HCl pharmaceutical grade). The oral inhalation of the above formulation as well as the placebo occurred via the Pari eFlow® XL 30 nebulizer device (Pari Pharma GmbH, Starnberg, Germany). The dose levels and corresponding concentrations of cyclo(-OctG-Glu-Thr-Ala-Ser-Ile-Pro-Pro-Gln-Lys-Tyr-^DPro-Pro-) (active compound) are summarized in Table 14.
as §1, with “was estimated to be between 7” for “depended on the total volume of nebulizer solution”, “20 min.” for “ranged between several minutes and roughly one hour.”

CCCCCCCC[C@@H]1NC(=O)[C@@H]2CCCN2C(=O)[C@H]2CCCN2C(=O)[C@H](Cc2ccc(O)cc2)NC(=O)[C@H](CCCCN)NC(=O)[C@H](CCC(N)=O)NC(=O)[C@@H]2CCCN2C(=O)[C@@H]2CCCN2C(=O)[C@H]([C@@H](C)CC)NC(=O)[C@H](CO)NC(=O)[C@H](C)NC(=O)[C@H]([C@@H](C)O)NC(=O)[C@H](CCC(=O)O)NC1=O [cyclo(-OctG-Glu-Thr-Ala-Ser-Ile-Pro-Pro-Gln-Lys-Tyr-^DPro-Pro-)] (cyclo([Gly(octyl)]ETASIPPQKY[dP]P))
histopathologic findings (cynomolgus monkeys; cynomolgus monkey, in vivo): increased numbers of alveolar macrophages, perivascular/peribronchiolar infiltrates, and granular eosinophilic deposits in the lung and lymphoid hyperplasia in the tracheobronchial lymph nodes
body weight, clinical signs, ophthalmic, electrocardiographic findings, urinary parameters (cynomolgus monkeys; monkey, 11.2, 30.1 and 112 mg/kg/day): no body weight changes, clinical signs, ophthalmic or electrocardiographic findings or changes in urinary parameters attributable to drug treatment
death, serious and other significant adverse events (healthy subjects; healthy subjects, single inhaled doses 20-960 mg): No death, no serious adverse events (AE) and no other significant AE
subjects judging overall tolerability 'very good' or 'good' (healthy subjects; human, in vivo): 97.9%
total number of AEs (healthy subjects; human, in vivo): 27
treatment-emergent adverse events (TEAEs) (healthy subjects; human, in vivo): 24
NE activity in BAL fluid (neutrophil elastase; 0.3 mg/kg inhalation): 0.10 ± 0.01 mU/mL eq.
NE activity in BAL fluid (neutrophil elastase; 3 mg/kg inhalation): 0.11 ± 0.01 mU/mL eq.
NE activity in BAL fluid (neutrophil elastase; 30 mg/kg inhalation): 0.07 ± 0.01 mU/mL eq.
effect on neutrophil elastase activity in BAL fluid (neutrophil elastase; 0.3, 3 and 30 mg/kg by inhalation 3 h post LPS, 1 h prior to fMLP, BAL 6 h post LPS): significantly inhibited
clinical signs between dosing and study termination (neutrophil elastase; rat, inhalation 0.3-30 mg/kg): No test item related clinical signs
death, serious and other significant adverse events ([1]; CF patients, single inhaled doses 80, 160, 320 mg): No death, no serious adverse events (AE) and no other significant AE
TEAEs rated as severe ([1]; human, in vivo): None
causal relationship of TEAEs to active compound ([1]; human, in vivo): not related
total number of AEs (all TEAEs) ([1]; human, in vivo): 6
